# Test results reported in patent US20140148454A1, “SUBSTITUTED AMINO-ACRYLCARBOXAMIDES AS KCNQ2/3 MODULATORS” (GRÜNENTHAL GMBH, priority 2012, published 2014).
# Target: T1, KCNQ2/3 channels (Homo sapiens, UniProt O43525+O43526)
# T1 construct: expressed in transfected cells; host or cells: CHO-K1 cells kept under selection antibiotics
# Experiment: Fluorescence assay using a voltage sensitive dye (fluorimetry)
# Format: cell-based
# Details: CHO-K1 cells expressing KCNQ2/3 channels; for Emax: relative to retigabine = 100%, read-out: Fluorimetry % efficacy (retigabine = 100%); for EC50: voltage-sensitive dye, read-out: Fluorimetry EC50/IC50
# Protocol: Method I. Fluorescence Assay Using a Voltage Sensitive Dye (Fluorimetry) […] CHO-K1 cells expressing KCNQ2/3 channels are cultivated adherently at 37° C., 5% CO2 and 95% humidity in cell culture bottles (e.g. 80 cm^2 TC flasks, Nunc) with DMEM-high glucose (Sigma Aldrich, D7777) including 10% FCS (PAN Biotech, e.g. 3302-P270521) or alternatively MEM Alpha Medium (1×, liquid, Invitrogen, #22571), 10% fetal calf serum (FCS) (Invitrogen, #10270-106, heat-inactivated) and the necessary selection antibiotics.
# Before being sown out for the measurements, the cells are washed with 1×DPBS buffer Ca^2+/Mg^2+-free (e.g. Invitrogen, #14190-094) and detached from the bottom of the culture vessel by using Accutase (PAA Laboratories, #L11-007) (incubation with Accutase for 15 min at 37° C.). The cell number is determined using a CASY™ cell counter (TCC, Scharfe System). Depending on the optimal density for each individual cell line, 20,000-30,000 cells/well/100 μl are seeded onto 96-well Corning™ CeIIBIND™ assay plates (Flat Clear Bottom Black Polystyrene Microplates, #3340). Freshly seeded cells are then left to settle for one hour at room temperature, followed by incubation for 24 hours at 37° C., 5% CO2 and 95% humidity.
# The voltage-sensitive fluorescent dye from the Membrane Potential Assay Kit (Red™ Bulk format part R8123 for FLIPR, MDS Analytical Technologies™) is prepared by dissolving the contents of one vessel Membrane Potential Assay Kit Red Component A in 200 ml of extracellular buffer (ES buffer, 120 mM NaCl, 1 mM KCl, 10 mM HEPES, 2 mM CaCl2, 2 mM MgCl2, 10 mM glucose; pH 7.4). After removal of the nutrient medium, the cells are washed once with 200 μl of ES buffer, then loaded for 45 min at room temperature in 100 μl of dye solution in the dark.
# Fluorescence measurements are carried out in a BMG Labtech FLUOstar™, BMG Labtech NOVOstar™ or BMG Labtech POLARstar™ instrument (525 nm excitation, 560 nm emission, Bottom Read mode). After incubation with the dye, 50 μl of the test substances in the desired concentrations, or 50 μl of ES buffer for control purposes, are applied to the wells of the assay plate and incubated for 30 min at room temperature while being shielded from light. The fluorescence intensity of the dye is then measured for 5 min and the fluorescence value F1 of each well is thus determined at a given, constant time. 15 μl of a KCl solution are then added to each well (final concentration of potassium ions 92 mM). The change in fluorescence intensity is subsequently monitored until all the relevant values have been obtained (mainly 5-30 min). At a given time post KCl application, a fluorescence value F2 is determined, in this case at the time of the fluorescence peak.
# For calculation, the fluorescence intensity F2 is corrected for the fluorescence intensity F1, and the activity (ΔF/F) of the target compound on the potassium channel is determined as follows:
# In order to determine whether a substance has agonistic activity, is determined by adding to the well only the buffer solution instead of the test substance, determining the value F1K of the fluorescence intensity, adding the potassium ions as described above, and measuring a value F2K of the fluorescence intensity. F2K and F1K are then calculated as follows: […]
# A substance has an agonistic activity on the potassium channel if it is possible to conclude that a target compound has agonistic activity if Calculations of EC50 and IC50 values are carried out with the aid of ‘Prism v4.0’ software (GraphPad Software™).
Compound,Emax,EC50
"CCSc1nc(N2CCOCC2)nc(C)c1C(=O)NCc1ccc(Cl)cc1 [Example 1, N-[(4-Chlorophenyl)-methyl]-4-ethylsulfanyl-6-methyl-2-morpholin-4-yl-pyrimidine-5-carboxylic acid amide]",137%,0.136 µM
"COc1nc(N2CCOCC2)nc(OC)c1C(=O)NCc1ccc(Cl)cc1 [Example 2, N-[(4-Chlorophenyl)-methyl]-4,6-dimethoxy-2-morpholin-4-yl-pyrimidine-5-carboxylic acid amide]",147%,0.315 µM
"CCSc1cc(N2CCOCC2)nc(C)c1C(=O)NCc1ccc(Cl)cc1 [Example 3, N-[(4-Chlorophenyl)-methyl]-4-ethylsulfanyl-2-methyl-6-morpholin-4-yl-pyridine-3-carboxylic acid amide]",171%,0.564 µM
"CCOc1cc(N2CCOCC2)nc(C)c1C(=O)NCCCC(C)(C)C [Example 5, N-(4,4-Dimethyl-pentyl)-4-ethoxy-2-methyl-6-morpholin-4-yl-pyridine-3-carboxylic acid amide]",218%,1.35 µM
"CC(C)c1nc(N2CCOCC2)cnc1C(=O)NCc1ccc(Cl)cc1 [Example 7, N-[(4-Chlorophenyl)-methyl]-3-isopropyl-5-morpholin-4-yl-pyrazine-2-carboxylic acid amide]",109%,0.482 µM
"CC(C)c1nc(N(C)C2CCOCC2)sc1C(=O)NC(C)c1cccc(OC(F)(F)F)c1 (centres unmarked) [Example 9, 4-Isopropyl-2-(methyl-tetrahydro-pyran-4-yl-amino)-N-[1-[3-(trifluoromethyloxy)-phenyl]ethyl]-thiazole-5-carboxylic acid amide]",104%,0.379 µM
"CCSc1nc(N2CCOCC2)nc(C)c1C(=O)NCc1cccc(F)c1 [Example 10, 4-Ethylsulfanyl-N-[(3-fluorophenyl)-methyl]-6-methyl-2-morpholin-4-yl-pyrimidine-5-carboxylic acid amide]",165%,0.14 µM
"CCSc1cc(N2CCOCC2)nc(C)c1C(=O)NCc1ccc(F)cc1 [Example 12, 4-Ethylsulfanyl-N-[(4-fluorophenyl)-methyl]-2-methyl-6-morpholin-4-yl-pyridine-3-carboxylic acid amide]",145%,1.47 µM
"CCSc1cc(N2CCOCC2)nc(C)c1C(=O)NCCCC(C)(C)C [Example 13, N-(4,4-Dimethyl-pentyl)-4-ethylsulfanyl-2-methyl-6-morpholin-4-yl-pyridine-3-carboxylic acid amide]",241%,0.319 µM
"CCSc1cc(N2CCOC[C@H]2C)nc(C)c1C(=O)NCc1ccc(Cl)cc1 [Example 14, N-[(4-Chlorophenyl)-methyl]-4-ethylsulfanyl-2-methyl-6-[(3R)-3-methyl-morpholin-4-yl]-pyridine-3-carboxylic acid amide]",176%,0.194 µM
"CCSc1cc(N2CCOC[C@H]2C)nc(C)c1C(=O)NCCCC(C)(C)C [Example 15, N-(4,4-Dimethyl-pentyl)-4-ethylsulfanyl-2-methyl-6-[(3R)-3-methyl-morpholin-4-yl]-pyridine-3-carboxylic acid amide]",247%,0.082 µM
"Cc1nc(N2CCOCC2)cc(C2CC2)c1C(=O)NCc1ccc(Cl)cc1 [Example 16, N-[(4-Chlorophenyl)-methyl]-4-cyclopropyl-2-methyl-6-morpholin-4-yl-pyridine-3-carboxylic acid amide]",178%,1.42 µM
"Cc1nc(N2CCOCC2)cc(C(C)C)c1C(=O)NCc1ccc(Cl)cc1 [Example 17, N-[(4-Chlorophenyl)-methyl]-4-isopropyl-2-methyl-6-morpholin-4-yl-pyridine-3-carboxylic acid amide]",180%,0.499 µM
"CCC(C)c1nc(N2CCOCC2)cnc1C(=O)NCc1ccc(Cl)cc1 (centres unmarked) [Example 20, N-[(4-Chlorophenyl)-methyl]-3-(1-methyl-propyl)-5-morpholin-4-yl-pyrazine-2-carboxylic acid amide]",88%,0.217 µM
"CCC(C)c1nc(N2CCOCC2)cnc1C(=O)NCCC1CCCC1 (centres unmarked) [Example 21, N-(2-Cyclopentyl-ethyl)-3-(1-methyl-propyl)-5-morpholin-4-yl-pyrazine-2-carboxylic acid amide]",132%,1.05 µM
"CC(C)c1nc(N(C)CC2CCOCC2)sc1C(=O)NC(C)c1cccc(OC(F)(F)F)c1 (centres unmarked) [Example 22, 4-Isopropyl-2-[methyl-(tetrahydro-pyran-4-yl-methyl)-amino]-N-[1-[3-(trifluoromethyloxy)-phenyl]-ethyl]-thiazole-5-carboxylic acid amide]",78%,0.459 µM
"CC(C)c1nc(N(C)C2CCOCC2)sc1C(=O)NCc1ccc(Cl)cc1 [Example 23, N-[(4-Chlorophenyl)-methyl]-4-isopropyl-2-(methyl-tetrahydro-pyran-4-yl-amino)-thiazole-5-carboxylic acid amide]",98%,1.14 µM
"CC(C)c1nc(N2CCOCC2)sc1C(=O)NCc1ccc(Cl)cc1 [Example 25, N-[(4-Chlorophenyl)-methyl]-4-isopropyl-2-morpholin-4-yl-thiazole-5-carboxylic acid amide]",48%,1.26 µM
"CC(NC(=O)c1sc(N(C)C2CCOCC2)nc1C(F)(F)F)c1cccc(OC(F)(F)F)c1 (centres unmarked) [Example 35, 2-(Methyl-tetrahydro-pyran-4-yl-amino)-4-(trifluoromethyl)-N-[1-[3-(trifluoromethyloxy)-phenyl]-ethyl]-thiazole-5-carboxylic acid amide]",131%,1.27 µM
"CN(c1nc(C(F)(F)F)c(C(=O)NCc2cccc(OC(F)(F)F)c2)s1)C1CCOCC1 [Example 36, 2-(Methyl-tetrahydro-pyran-4-yl-amino)-4-(trifluoromethyl)-N-[[3-(trifluoromethyloxy)-phenyl]-methyl]-thiazole-5-carboxylic acid amide]",125%,1.1 µM
"CN(c1nc(C(F)(F)F)c(C(=O)NCc2ccc(Cl)cc2)s1)C1CCOCC1 [Example 38, N-[(4-Chlorophenyl)-methyl]-2-(methyl-tetrahydro-pyran-4-yl-amino)-4-(trifluoromethyl)-thiazole-5-carboxylic acid amide]",102%,1.26 µM
"CC(NC(=O)c1sc(N2CCOCC2)nc1C(F)(F)F)c1cccc(OC(F)(F)F)c1 (centres unmarked) [Example 40, 2-Morpholin-4-yl-4-(trifluoromethyl)-N-[1-[3-(trifluoromethyloxy)-phenyl]ethyl]-thiazole-5-carboxylic acid amide]",78%,1.28 µM
